Experiments:
[1] = tested on: termites (Coptotermes formosanus, workers); assay: Termite antifeeding test on treated Japanese black pine wood (Test Example 1); type: in vivo; details: 100 termites, 3 weeks in the dark
Description: A designated amount (10 mg or 100 mg) of octyl gallate was dissolved in 0.3 ml of acetone and uniformly spread on a piece of Japanese black pine wood (1 cm×1 cm×2 cm) with pipette. The wood was allowed to stand overnight at room temperature, dried at 60° C. in a thermostat for 3 days, and then the weight of the wood was measured. The bottom of a 200 ml-volume plastic cup having several holes on the bottom was covered with gypsum in 2 cm thickness. The wood prepared above and 100 termites (Coptotermes formosanus, workers) were put in the plastic cup and kept in the dark for 3 weeks. For that time, cotton wool containing water was set under the plastic cup, and the gypsum was kept wet through the hole. After 3 weeks, the wood was recovered, dried at 60° C. in a thermostat for 3 days, and then the weight of the wood was measured. The decreasing ratio of the weight was calculated. For a reference, a piece of Japanese black pine wood treated with only 0.3 ml of acetone was tested and the decreasing ratio of the weight was calculated in the same manner.

[2] = tested on: termites (Coptotermes formosanus, workers); assay: Termite antifeeding test on treated filter paper (Test Example 2); type: in vivo; details: 10 mg of test compound on filter paper (33 mm in diameter); fifty termites; one week; tests repeated three times
Description: An acetone solution (1 ml) containing 10 mg of the test compound was dropped on filter paper (33 mm in diameter, Milk sediment disk 1026 produced by Toyo Roshi K.K.) and dried at room temperature overnight. The filter paper was set in a white plastic cup (35 mm in diameter) having one hole on side and one hole in bottom, wherein the diameter of the holes are about 3 mm and termites can easily go through the holes. The white plastic cup was put into the 200 ml-volume plastic cup having several holes on the bottom which was covered with gypsum in 2 cm thickness. Fifty termites (Coptotermes formosanus, workers) were put in the 200 ml-volume plastic cup and kept in the container, the bottom of which was filled with wet cotton wool. The container was covered for keeping wet therein. After one week, the filter paper was recovered, dried well at room temperature, and then the weight was measured. The decreasing ratio of the weight was calculated. The tests were repeated three times. For a reference, filter paper treated with only 1 ml of acetone was tested and the decreasing ratio of the weight was calculated in the same manner.

Row | SMILES | The decreasing ratio of the weight (%) ([1]; 10 mg of octyl gallate on Japanese black pine wood (1 cm×1 cm×2 cm)) | The decreasing ratio of the weight (%) ([1]; 100 mg of octyl gallate on Japanese black pine wood (1 cm×1 cm×2 cm)) | The decreasing ratio of the weight (%) [2] [%]
1 | CCCCCCCCOC(=O)c1cc(O)c(O)c(O)c1 [octyl gallate, Octyl gallate] | 2.4 | 0.9 | –
2 | CCCCCCCCCCCCOC(=O)c1cc(O)c(O)c(O)c1 [Dodecyl gallate] | – | – | 1.13
3 | CCCCCCCCCCOC(=O)c1cc(O)c(O)c(O)c1 [Decyl gallate, decyl gallate] | – | – | 0
